Results: US20110269825A1, “Modified Thromboxane A2 Receptor Promoter Sequence” (priority 2008, published 2011)

Columns and labels:
[1] = test system: WI-38 (human lung fibroblast) cells; assay: Dual luciferase genetic reporter assay in WI-38 cells; format: cell-based
Procedure: (§1) HEL and EA.hy 926 cells were co-transfected with the various pGL3Basic-recombinant plasmids (2 mg), encoding firefly luciferase, along with pRL-TK (200 ng), encoding renilla luciferase, using DMRIE-C® transfection reagent. HEK293, WI-38, and 1° hAoSMCs were co-transfected with the pGL3Basic-recombinant plasmids (2 mg), along with pRL-TK (200 ng), using Effectene transfection reagent. In all cases, cells co-transfected with pRL-TK (200 ng) in the presence of either the pGL3Control vector (firefly luciferase gene under the control of the SV40 promoter; 2 mg) or the promoter-less pGL3Basic empty vector (2 mg), which served as positive and negative controls, respectively. Firefly and renilla luciferase expression was assayed some 48 h post-transfection using the Dual-Luciferase Reporter Assay System™, as described (Coyle et al., 2005). Relative firefly to renilla luciferase activity (arbitrary units) was calculated as a ratio and was expressed in relative luciferase units (RLU). To investigate the effect of over-expression of exon 5 (+ or −) or KTS (+ or −) isoforms of WT1 on Prm1-directed gene expression, HEL cells were co-transfected with either pGL3b:Prm1 or pGL3b:Prm1D (1.5 μg) plus 200 ng of pRL-TK along with either pcDNA3:WT1 (+/+), pcDNA3:WT1 (+/−), pcDNA3:WT1 (−/+), pcDNA3:WT1 (−/−) (0.5 μg), or as a control, pcDNA3 (0.5 μg). Cells were harvested 48 h post-transfection and assayed for luciferase activity, as above, or subjected to western blot or RT-PCR analysis. The plasmids pcDNA3:WT1 (+/+), pcDNA3:WT1 (+/−), pcDNA3:WT1 (−/+) and pcDNA3:WT1 (−/−) were generously donated by Dr. Charles T. Roberts JR, Oregon National Primate Research Center, Oregon, USA and have been previously described (Tajinda et al., 1999). For PMA studies, approximately 32 h post-transfection, the medium was supplemented with PMA (100 nM), with PMA (100 nM) and PD98059 (10 μM) or, as a control, with vehicle [0.1% (v/v) DMSO]. After 16 h, cells were assayed for firefly and renilla luciferase using the Dual-Luciferase Reporter Assay System™ as previously described (Coyle et al., 2005). […]

[2] = test system: human tissue factor (hTF); assay: Immunoblot analysis of promoter-driven human tissue factor expression in HEL cells; format: cell-based; settings: 48 h post-transfection, compared with CMV promoter (pcDNA3.1(−):hTF) and pcDNA3.1(−)
Procedure: The expression of WT1, Sp1, Egr1, NF-E2, GATA-1 and Ets-1 proteins in HEL cells was confirmed by western blot analysis. Briefly, whole cell protein was resolved by SDS-PAGE (10% acrylamide gels) and transferred to polyvinylidene difluoride (PVDF) membrane according to standard methodology. Membranes were screened using anti-WT1, anti-NF-E2, anti-Sp1, anti-Egr1, anti-GATA-1 or anti-Ets-1 sera in 5% non fat dried milk in 1×TBS (0.01 M Tris/HCl, 0.1 M NaCl) for 2 h at room temperature followed by washing and screening using goat anti-rabbit horseradish peroxidase (sc-2204) followed by chemiluminescence detection, as described by the supplier (Roche Applied Science). For PMA studies, HEL cells were pre-incubated for the indicated amount of time with 100 nM PMA, with 10 μM PD98059, with 100 nM PMA plus 10 μM PD98059 or, as a control, with vehicle [0.1% (v/v) DMSO]. Whole cell protein (60 μg per lane) was resolved by SDS-PAGE (10% acrylamide gels) and transferred to polyvinylidene difluoride (PVDF) membrane according to standard methodology. […] Cells were harvested 48 hr post-transfection and aliquots ([…]) were analysed by SDS-PAGE/western blot analysis. As a positive control for hTF expression, […] of a commercial control Tissue-Factor Biomass was also analysed. […]

[3] = test system: EA.hy 926 (human endothelial) cells; assay: Dual luciferase genetic reporter assay in EA.hy 926 cells; format: cell-based
Procedure: as §1

[4] = test system: HEK (Human embryonic kidney) 293 cells; assay: Dual luciferase genetic reporter assay in HEK 293 cells; format: cell-based
Procedure: as §1

[5] = test system: HEL 92.1.7 cells; assay: Dual luciferase genetic reporter assay of promoter-directed luciferase expression in HEL cells; format: cell-based, human
Procedure: HEL and EA.hy 926 cells were co-transfected with the various pGL3Basic-recombinant plasmids (2 mg), encoding firefly luciferase, along with pRL-TK (200 ng), encoding renilla luciferase, using DMRIE-C® transfection reagent. HEK293, WI-38, and 1° hAoSMCs were co-transfected with the pGL3Basic-recombinant plasmids (2 mg), along with pRL-TK (200 ng), using Effectene transfection reagent. In all cases, cells co-transfected with pRL-TK (200 ng) in the presence of either the pGL3Control vector (firefly luciferase gene under the control of the SV40 promoter; 2 mg) or the promoter-less pGL3Basic empty vector (2 mg), which served as positive and negative controls, respectively. Firefly and renilla luciferase expression was assayed some 48 h post-transfection using the Dual-Luciferase Reporter Assay System™, as described (Coyle et al., 2005). Relative firefly to renilla luciferase activity (arbitrary units) was calculated as a ratio and was expressed in relative luciferase units (RLU). To investigate the effect of over-expression of exon 5 (+ or −) or KTS (+ or −) isoforms of WT1 on Prm1-directed gene expression, HEL cells were co-transfected with either pGL3b:Prm1 or pGL3b:Prm1D (1.5 μg) plus 200 ng of pRL-TK along with either pcDNA3:WT1 (+/+), pcDNA3:WT1 (+/−), pcDNA3:WT1 (−/+), pcDNA3:WT1 (−/−) (0.5 μg), or as a control, pcDNA3 (0.5 μg). Cells were harvested 48 h post-transfection and assayed for luciferase activity, as above, or subjected to western blot or RT-PCR analysis. The plasmids pcDNA3:WT1 (+/+), pcDNA3:WT1 (+/−), pcDNA3:WT1 (−/+) and pcDNA3:WT1 (−/−) were generously donated by Dr. Charles T. Roberts JR, Oregon National Primate Research Center, Oregon, USA and have been previously described (Tajinda et al., 1999). For PMA studies, approximately 32 h post-transfection, the medium was supplemented with PMA (100 nM), with PMA (100 nM) and PD98059 (10 μM) or, as a control, with vehicle [0.1% (v/v) DMSO]. After 16 h, cells were assayed for firefly and renilla luciferase using the Dual-Luciferase Reporter Assay System™ as previously described (Coyle et al., 2005). The plasmid pCMV5-NAB1, containing the entire coding sequence for NAB1, was generously donated by Dr. Gerald Thiel, University of Saarland Medical Center, Homburg, Germany, and has been described previously (Thiel et al., 2000). To investigate the effect of over-expression of NAB1 on the PMA-mediated induction of Prm1-directed gene expression, HEL cells were transiently co-transfected with pGL3b:Prm1 (2 μg) plus pRL-TK (200 ng) along with either pCMV5 (control) or pCMV:NAB1 (1 μg). Cells were harvested 48 h post-transfection and assayed for luciferase activity, as above.

[6] = test system: 1° hAoSMC (primary human aortic smooth muscle) cells; assay: Dual luciferase genetic reporter assay in 1° hAoSMC; format: cell-based; settings: for Mean firefly relative to renilla luciferase activity: co-transfected with pRL-TK
Procedure: as §1

[7] = test system: Egr1; assay: Immunoblot analysis of Egr1 expression in HEL cells; format: cell-based, human; settings: 100 nM PMA plus 10 μM PD98059, 16 h
Procedure: The expression of WT1, Sp1, Egr1, NF-E2, GATA-1 and Ets-1 proteins in HEL cells was confirmed by western blot analysis. Briefly, whole cell protein was resolved by SDS-PAGE (10% acrylamide gels) and transferred to polyvinylidene difluoride (PVDF) membrane according to standard methodology. […] For PMA studies, HEL cells were pre-incubated for the indicated amount of time with 100 nM PMA, with 10 μM PD98059, with 100 nM PMA plus 10 μM PD98059 or, as a control, with vehicle [0.1% (v/v) DMSO]. Whole cell protein (60 μg per lane) was resolved by SDS-PAGE (10% acrylamide gels) and transferred to polyvinylidene difluoride (PVDF) membrane according to standard methodology.

[8] = test system: Prm1-directed luciferase expression; assay: Effect of PMA, PD98059 or Vitamin D3 on Prm1-directed luciferase expression in HEL cells; format: cell-based, human; settings: 100 nM PMA plus 10 μM PD98059, 16 h
Procedure: HEL and EA.hy 926 cells were co-transfected with the various pGL3Basic-recombinant plasmids (2 mg), encoding firefly luciferase, along with pRL-TK (200 ng), encoding renilla luciferase, using DMRIE-C® transfection reagent. HEK293, WI-38, and 1° hAoSMCs were co-transfected with the pGL3Basic-recombinant plasmids (2 mg), along with pRL-TK (200 ng), using Effectene transfection reagent. In all cases, cells co-transfected with pRL-TK (200 ng) in the presence of either the pGL3Control vector (firefly luciferase gene under the control of the SV40 promoter; 2 mg) or the promoter-less pGL3Basic empty vector (2 mg), which served as positive and negative controls, respectively. […] Relative firefly to renilla luciferase activity (arbitrary units) was calculated as a ratio and was expressed in relative luciferase units (RLU). To investigate the effect of over-expression of exon 5 (+ or −) or KTS (+ or −) isoforms of WT1 on Prm1-directed gene expression, HEL cells were co-transfected with either pGL3b:Prm1 or pGL3b:Prm1D (1.5 μg) plus 200 ng of pRL-TK along with either pcDNA3:WT1 (+/+), pcDNA3:WT1 (+/−), pcDNA3:WT1 (−/+), pcDNA3:WT1 (−/−) (0.5 μg), or as a control, pcDNA3 (0.5 μg). […] The plasmid pCMV5-NAB1, containing the entire coding sequence for NAB1, was generously donated by Dr. Gerald Thiel, University of Saarland Medical Center, Homburg, Germany, and has been described previously (Thiel et al., 2000). To investigate the effect of over-expression of NAB1 on the PMA-mediated induction of Prm1-directed gene expression, HEL cells were transiently co-transfected with pGL3b:Prm1 (2 μg) plus pRL-TK (200 ng) along with either pCMV5 (control) or pCMV:NAB1 (1 μg).

Compound	Ratio of luciferase expression relative to that directed by pGL3Control ([1]; WI-38)	Statistical significance of luciferase expression vs Prm1 ([1]; WI-38, ↑ = increase)	Mean firefly relative to renilla luciferase activity ([1]; WI-38 cells, co-transfected with pRL-TK) [RLU]	Level of human tissue factor expression driven by the promoter [2]	Ratio of luciferase expression relative to that directed by pGL3Control ([3]; EA.hy 926)	Statistical significance of luciferase expression vs Prm1 ([3]; EA.hy 926, ↑ = increase)	Mean firefly relative to renilla luciferase activity ([3]; EA.hy 926 cells, co-transfected with pRL-TK) [RLU]	Ratio of luciferase expression relative to that directed by pGL3Control ([4]; HEK)	Statistical significance of luciferase expression vs Prm1 ([4]; HEK 293, ↑ = increase)	Mean firefly relative to renilla luciferase activity ([4]; HEK 293 cells, co-transfected with pRL-TK) [RLU]	Ratio of luciferase expression relative to that directed by pGL3Control ([5]; HEL)	Mean firefly relative to renilla luciferase activity ([5]; HEL cells, co-transfected with pRL-TK, 48 h post-transfection) [RLU]	Increase in luciferase activity relative to Prm1 (−8500) ([5]; HEL, 5′ deletion or site-directed mutation of Prm1) [fold]	Luciferase expression compared with another construct, in words ([5]; HEL, comparator as named in the words or parent fragment)	Ratio of luciferase expression relative to that directed by pGL3Control [6]	Mean firefly relative to renilla luciferase activity [6] [RLU]	Mean firefly relative to renilla luciferase activity ([6]; listed as pGL3BPrm1GC-8146) [RLU]	Effect on PMA-induction of Egr1 protein expression [7]	Effect on luciferase expression directed by the Prm1K sub-fragment [8]	PMA-induction of Prm1-directed luciferase expression in the presence of PD98059 ([8]; 4.3-fold with PMA alone) [fold]
Prm1^GC*^(−8146): Prm1 with GC element at −8146 mutated (SEQ ID NO:13) (DNA CGGGGGTCGTGGGGTGGATGGCGGGCCAA; expressed or natural sequence; listed as Homo sapiens)	0.51	ns	59.01	significantly greater	0.06	ns	3.11	0.69	ns	6.9	2.65	21.5	2.5	significantly stronger promoters	1.18	82.67	82.668			
COc1cccc(-c2cc(=O)c3ccccc3o2)c1N [PD98059, 2-(2-amino-3-methoxyphenyl)-4H-1-benzopyran-4-one]																		completely abolished the PMA-induction of Egr1 protein expression	neither PMA alone (p=0.4721) nor PMA plus PD98059 (p=0.2693) had any significant effect	2.3
